These results are taken from patent US20110118202A1, “Molecules which Bind to the Dimerization Initiation Site (DIS) of HIV RNA, Their Synthesis and Their Applications as Drugs” (priority 2006, published 2011).

Each structure is given as a SMILES string. “Also recorded” adds a separate entry of the source.

For assay [1], the system named is subtype B DIS of HIV-1 genomic RNA. The assay can be described thus: In situ DMS footprinting in infected CEMx174 cells and virions, subtype B DIS. The following applies: infected cells and viral particles; 3 mM aminoglycoside in culture.
Assay [2] relates to subtype A DIS of HIV-1 genomic RNA. Description: In situ DMS footprinting in infected CEMx174 cells and virions, subtype A DIS. Particulars: infected cells and viral particles; 3 mM aminoglycoside in culture.
Assay [3] concerns subtype B kissing-loop complex. The assay can be described thus: DMS footprinting, subtype B DIS. The format is binding, HIV-1. The following applies: NL4.3 sequence. The procedure: (§1) Materials and Methods: Chemical footprinting experiments were performed on a 23-mer subtype A SL1 RNA or on RNA1-615, which corresponds to nucleotides 1-615 of HIV-1 Mal genomic RNA (Ennifar et al., J. Biol. Chem. 2003 278:2723-2730). Chemical modification was carried out either with dimethyl sulfate (DMS, Fluka) to test the accessibility of N1-A and N3-C positions or with lead acetate (Merck), which selectivity cleaves the subtype A DIS loop between the first and second nucleotides.
The dimeric molecules also protect from DMS modification as neomycin (FIG. 10).
In addition, none of the 4,5-disubstituted DOS was bound to the subtype B kissing-loop complex.

The test system of assay [4] is subtype A DIS in RNA1-615 (HIV-1 MAL genomic RNA). Description: DMS footprinting of aminoglycosides on RNA1-615 (subtype A DIS). The format is binding. The following applies: for protection of A280 against methylation by DMS: 10 μM and above; for protection of A280 against methylation by DMS / protection against methylation by DMS: RNA1-615; for protection against methylation by DMS: even at 100 μM. The procedure: as §1
(§2) The binding of aminoglycosides to DIS can be detected through several biochemical methods: it induces protection toward chemical modification with dimethyl sulfate (DMS) or toward a specific cleavage in the subtype A promoted by lead (II); it also induces slower migration on non-denaturated gel.
Residues A272 and A280 of RNA1-615 are unpaired in the kissing-loop complex and are methylated by DMS at their N1 position. As previously observed (Baudin et al., J. Mol. Biol. 1993, 229:382-397; Paillart et al., J. Mol. Biol. 1997, 270:36-49), A280 is more reactive than A272, even though the latter nucleotide is flipped out of the helix, while the former is stacked inside the structure. […] On the other hand, A272, which is flipped out of the kissing-loop complex was not protected against methylation by DMS (FIG. 22B). […] Thus, even though these compounds bound to short DIS RNA in the same way as neomycin and lividomycin (FIGS. 19A and 19B), they were unable to efficiently recognize this target in the context of a large RNA.

Assay [5] has as its system subtype A DIS kissing-loop complex (23-mer RNA). The assay can be described thus: Lead(II)-induced cleavage of the DIS loop, 23-mer RNA (footprinting). The following applies: for inhibition of lead-induced cleavage of the subtype A DIS loop: 25 μM aminoglycoside; for inhibition of lead-induced cleavage of the DIS loop, relative efficiency: FIG. 21. The format is binding, HIV-1. How it is done:
as §1, §2
At this stage, it was unclear if this class of compound is able to bind to the DIS kissing-loop complex. To compare binding of 4,5-disubstituted and 4,6-disubstituted DOS, a 23-mer RNA corresponding to the subtype A DIS, which was allowed to dimerize in conditions permitting crystallization of the kissing-loop complex, was used. As previously shown, lead (II) induced a specific cleavage in the subtype A DIS loop that is sensitive to the binding of aminoglycoside (FIG. 21).

In assay [6] the test system is subtype F kissing-loop complex. Description: DMS footprinting, subtype F DIS in the context of RNA1-615. The format is binding, HIV-1.
Assay [7] has as its system DIS kissing-loop complex in RNA1-615 (HIV-1 MAL genomic RNA, subtype A DIS). The assay can be described thus: Lead-induced cleavage of RNA1-615, primer extension assay. The format is binding. The procedure:
as §1
To evaluate the capacity of 4,5-disubstituted DOS to bind to the DIS kissing-loop complex in a larger RNA presenting numerous unspecific binding sites, RNA1-615, which corresponds to nucleotides 1 to 615 of the HIV-1 MAL genomic RNA, was used.

For assay [8], the system named is subtype F DIS of HIV-1 genomic RNA. Description: In situ DMS footprinting in infected CEMx174 cells and virions, subtype F DIS. The following applies: infected cells and viral particles; 3 mM aminoglycoside in culture.
Assay [9] concerns DIS kissing-loop complex of RNA1-615 (HIV-1 MAL, subtype A DIS). Description: Competition experiment: exchange of RNA 1-615 homodimer with RNA 1-311 (heterodimer formation). The format is biochemical. Particulars: for heterodimer formation after addition of RNA1-311: 100 μM aminoglycoside, fivefold excess RNA1-311, up to one hour; for heterodimer formation after addition of RNA1-311 / heterodimer formed compared with dimer 12: 37° C.; for heterodimer formed compared with dimer 12: FIG. 14; for exchange of preformed RNA homodimers (1-615/1-615) with RNA (1-311): FIG. 13. How it is done: Materials and Methods: In a typical experiment, unlabeled 1-615 RNA (400 nM), together with a corresponding internally labeled RNA (3-5 nCi), were heated for 2 min at 90° C., chilled for 2 min on ice, and dimerization was initiated by addition of 2 μl of 5-fold concentrated dimerization buffer (final concentration: 50 mM sodium cacodylate, pH 7.5, 300 mM KCl, 5 mM MgCl2). After incubation at 37° C. for 20 min, 100 μM of aminoglycosides were added to the RNA mixture and incubation was continue for 15 min. Then, RNA 1-311 was added as a competitor and sample were collected at 2, 5, 10, 15, 20, 30, and 60 min and analyzed on 0.8% agarose gels (45 mM Tris borate pH 8.3, 01 mM MgCl2) at 4° C. Gels were fixed in TCA 10%, dried, and analyzed using a BAS 2000 Bio-Imager (Fuji).
The kissing-loop complex of radiolabeled RNA1-615 was formed, and then aminoglycosides at a 100 AM concentration were added. Next, a fivefold excess of unlabeled RNA1-311, encompassing nucleotides 1 to 311 of HIV-1 MAL genomic RNA, that also contains the subtype A DIS and is thus able to form a heterodimer with RNA1-615, was added (FIG. 24). Due to the dynamic nature of the kissing-loop complex, in the absence of aminoglycoside, greater than half of the radioactive material was shifted in the heterodimer within two minutes, and the RNA1-615 homodimer almost completely disappeared upon prolonged incubation. […] This observation is in keeping with the crystal structures showing that 4,5-disubstituted DOS form a bridge between the two RNA molecules (FIG. 18).
The aminoglycosides have also been investigated in solution. Their ability to stabilize the loop-loop interaction was investigated through competition experiments. Preformed RNA homodimers (1-615/1-615) were placed in the presence of the same but shorter RNA (1-311), and the kinetic of their exchanges was followed in the presence, or not, of aminoglycosides (FIG. 13).

The test system of another assay is ribosomal A site. The following applies: Wong et al., Chem. Biol. 1998; cited from earlier work.
The mark [10] stands for this setting: subtype A, loop adenine A280 and guanine G274.

For `NCC1O[C@H](O[C@@H]2C(N)C[C@@H](N)C(O)[C@H]2O[C@@H]2O[C@H](CO)C(O[C@H]3O[C@H](CN)[C@@H](O)C(O)C3N)[C@@H]2O)C(N)[C@@H](O)[C@@H]1O` (some centres unmarked) [neomycin], the “protection of A280 against DMS methylation of subtype B DIS” value (“protection of A280 … of subtype B DIS” below) in assay [1] is given as “did not protect A280”. Further, the “reduction of alkylation (DMS) of A280 of the subtype A DIS” value (“reduction … of the subtype A DIS” for short) in [2] is given as “more than two-fold”. Also, the “interaction seen by DMS modification” value in assay [3] is on record as “no significant interaction”. For the same molecule, in assay [4], the “protection of A280 against methylation by DMS” value is “strongly protected A280 against methylation”. Besides, the “protection from DMS modification” value in assay [4] (Mal sequence) is on record as “protect from DMS modification the bases implicated in the interaction”. Also, in [4] (setting [10]), the “protection from DMS modification” value is “protects from DMS modification the loop adenine A280 and the guanine G274”. In assay [5], the “inhibition of lead-induced cleavage of the subtype A DIS loop” value is on record as “completely inhibited” and the “inhibition of lead-induced cleavage of the DIS loop, relative efficiency” value (“inhibition … relative efficiency” for short) is on record as “equally inhibited”. Further, in assay [6], the “binding to the subtype F kissing-loop complex by DMS footprinting” value (“binding” for short) is given as “efficiently bound”. In addition, the “inhibition of lead-induced cleavage between A272 and G273” value in [7] (50 μM) is on record as “almost completely inhibited”. Moreover, in assay [8], the “reduction of alkylation (DMS) of A280 of the subtype F DIS” value was “more than two-fold”. Moreover, in assay [9], the “heterodimer formation after addition of RNA1-311” value (“heterodimer formation” for short) is reported as “only minimal amounts of heterodimer were formed”, the “heterodimer formed compared with dimer 12” value is “twice less heterodimer” and the “exchange of preformed RNA homodimers (1-615/1-615) with RNA (1-311)” value (“exchange of preformed RNA homodimers” below) is listed as “almost totally abolish the exchange”.

With `NC[C@H]1O[C@H](O[C@H]2[C@H](O)[C@@H](O)[C@H](N)C[C@@H]2N)[C@H](N)[C@@H](O)[C@@H]1O` [neamine], in assay [4], the “protection against methylation by DMS” value is “no protection against methylation”. Moreover, the “inhibition … relative efficiency” value in assay [5] was “less efficient; also recorded: inhibited cleavage at lower concentration than the tricyclic ribostamycin”. In assay [6], the “binding” value is “did not bind”. In addition, the “inhibition of lead-induced cleavage between A272 and G273” value in assay [7] (even at 100 μM) is reported as “no inhibition”. Moreover, the “affinity for the ribosomal A site” value with ribosomal A site is reported as “higher affinity than ribostamycin”.

Turning to `NC[C@H]1O[C@H](O[C@H]2[C@H](O)[C@@H](O[C@H]3O[C@H](CO)[C@@H](O)[C@H](N)[C@H]3O)[C@H](N)C[C@@H]2N)[C@H](N)C[C@@H]1O` [tobramycin], the “protection from DMS modification” value in assay [4] (setting [10]) is listed as “no protection”.

With `NC[C@H]1O[C@H](O[C@H]2[C@H](O[C@@H]3O[C@H](CO)[C@@H](O)[C@H]3O)[C@@H](O)[C@H](N)C[C@@H]2N)[C@H](N)[C@@H](O)[C@@H]1O` [ribostamycin], the “protection against methylation by DMS” value in assay [4] is given as “no protection against methylation”. Also, the “inhibition … relative efficiency” value in assay [5] is given as “less efficient”. In addition, in [6], the “binding” value is listed as “did not bind”. In assay [7] (even at 100 μM), the “inhibition of lead-induced cleavage between A272 and G273” value was “no inhibition”.

For `NC[C@@H]1O[C@H](O[C@H]2[C@@H](O)[C@H](O[C@@H]3[C@@H](O)[C@H](N)C[C@H](N)[C@H]3O[C@H]3O[C@H](CO)[C@@H](O)[C@H](O)[C@H]3N)O[C@@H]2CO)[C@H](N)[C@@H](O)[C@@H]1O` [paromomycin], in assay [1], the “protection of A280 … of subtype B DIS” value is given as “did not protect A280”. Also, the “reduction … of the subtype A DIS” value in assay [2] is reported as “more than two-fold”. In addition, the “interaction seen by DMS modification” value in assay [3] was “no significant interaction”. For the same molecule, the “protection from DMS modification” value in assay [4] (Mal sequence) was “protect from DMS modification the bases implicated in the interaction”. In addition, in assay [9], the “heterodimer formation” value is given as “only minimal amounts of heterodimer were formed”, the “heterodimer formed compared with dimer 12” value is on record as “twice less heterodimer” and the “exchange of preformed RNA homodimers” value is on record as “almost totally abolish the exchange”.

`NC[C@@H]1O[C@H](O[C@H]2[C@@H](O)[C@H](O[C@@H]3[C@@H](O)[C@H](N)C[C@H](N)[C@H]3O[C@H]3O[C@H](CO)[C@@H](O)C[C@H]3N)O[C@@H]2CO)[C@H](N)[C@@H](O)[C@@H]1O[C@H]1O[C@H](CO)[C@@H](O)[C@H](O)[C@@H]1O` [lividomycin]: the “protection of A280 … of subtype B DIS” value in assay [1] is reported as “did not protect A280”. For the same molecule, the “reduction … of the subtype A DIS” value in [2] is listed as “more than two-fold”. The “protection of A280 against methylation by DMS” value in [4] is “strongly protected A280 against methylation”. Moreover, the “inhibition of lead-induced cleavage of the subtype A DIS loop” value in assay [5] was “completely inhibited”. Further, in assay [6], the “binding” value is reported as “efficiently bound”. In addition, the “inhibition of lead-induced cleavage between A272 and G273” value in assay [7] (50 μM) was “almost completely inhibited”. Also, the “reduction of alkylation (DMS) of A280 of the subtype F DIS” value in assay [8] was “more than two-fold”. For the same molecule, in assay [9], the “heterodimer formation” value is listed as “only minimal amounts of heterodimer were formed”, the “heterodimer formed compared with dimer 12” value was “twice less heterodimer” and the “exchange of preformed RNA homodimers” value is “almost totally abolish the exchange”.
